What follows are compounds tested against T1, Glucocorticoid receptor (Homo sapiens, UniProt P04150) (assay: GR Binding Assay and GRAF Assay). Settings: pH 8; 4 °C.
T1 sequence (P04150 whole entry): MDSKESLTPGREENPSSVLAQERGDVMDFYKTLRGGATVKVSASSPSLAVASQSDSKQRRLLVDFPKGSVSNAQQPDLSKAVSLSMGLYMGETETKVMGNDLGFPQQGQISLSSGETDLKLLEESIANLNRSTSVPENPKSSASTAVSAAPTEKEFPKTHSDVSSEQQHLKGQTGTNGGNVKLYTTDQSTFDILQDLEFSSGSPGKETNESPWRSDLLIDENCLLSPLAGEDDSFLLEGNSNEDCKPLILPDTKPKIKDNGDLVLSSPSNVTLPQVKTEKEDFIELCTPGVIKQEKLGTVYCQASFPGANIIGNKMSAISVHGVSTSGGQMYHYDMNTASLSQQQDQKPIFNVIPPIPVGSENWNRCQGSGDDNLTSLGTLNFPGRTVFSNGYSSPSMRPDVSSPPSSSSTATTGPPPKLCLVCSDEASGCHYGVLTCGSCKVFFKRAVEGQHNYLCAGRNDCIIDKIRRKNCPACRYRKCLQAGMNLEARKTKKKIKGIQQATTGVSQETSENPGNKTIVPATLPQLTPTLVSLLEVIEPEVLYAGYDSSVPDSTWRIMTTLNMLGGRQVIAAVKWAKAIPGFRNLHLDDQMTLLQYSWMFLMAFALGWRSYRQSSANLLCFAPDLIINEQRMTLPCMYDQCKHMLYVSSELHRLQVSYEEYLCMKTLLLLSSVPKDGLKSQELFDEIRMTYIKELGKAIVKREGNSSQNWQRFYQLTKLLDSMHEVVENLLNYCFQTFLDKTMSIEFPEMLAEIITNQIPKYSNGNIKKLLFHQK

IC50 [nM]	SMILES
330	Cc1c(NS(C)(=O)=O)cccc1N(Cc1ccc(Oc2ccc(Br)c(OCC(=O)O)c2)cc1)Cc1ccc(F)cc1F [2-{2-bromo-5-[4-({[(2,4-difluorophenyl)methyl](3-methanesulfonamido-2-methylphenyl)amino}methyl)phenoxy]phenoxy}acetic acid]
500	Cc1c(NS(C)(=O)=O)cccc1N(Cc1ccc(Oc2ccc(Cl)c(OCC(=O)O)c2)cc1)Cc1ccc(F)cc1F [2-{2-chloro-5-[4-({[(2,4-difluorophenyl)methyl](3-methanesulfonamido-2-methylphenyl)amino}methyl)phenoxy]phenoxy}acetic acid]
440	Cc1c(NS(C)(=O)=O)cccc1N(Cc1ccc(Oc2ccc(F)c(OCC(=O)O)c2)cc1)Cc1ccc(F)cc1F [2-{5-[4-({[(2,4-difluorophenyl)methyl](3-methanesulfonamido-2-methylphenyl)amino}methyl)phenoxy]-2-fluorophenoxy}acetic acid]

SMILES	IC50 [nM]
CC#C[C@]1(O)CC[C@H]2[C@@H]3CCC4=CC(=O)CC[C@]4(Cc4ccc(C)cc4)C3=CC[C@@]21C [(2R,10S,11S,14S,15S)-14-hydroxy-15-methyl-2-[(4-methylphenyl)methyl]-14-(prop-1-yn-1-yl)tetracyclo[8.7.0.0^{2,7}.0^{11,15}]heptadeca-1(17),6-dien-5-one]	43

Source: BindingDB's records for doi:10.1021/jm050205o (Abbott Laboratories, 2005)
